Assay results from US20240409886A1, “CULTURE MEDIUM COMPRISING DIPEPTIDES” (Evonik Operations GmbH, priority 2017, published 2024).
Residues, ends and D or L forms follow the SMILES beside them.

Tests used:
[1] = tested on: antibody-producing Chinese Hamster Ovary (CHO) cell (subclone DG44); test: product titer (antibody concentration at the end of the cultivation); format: cell-based; details: for rel. product titer [-]: end of cultivation, t=18h, relative units
Method: The effect of the Gln-Asn dipeptide on an antibody-producing Chinese Hamster Ovary (CHO) cell (subclone DG44; Life Technologies Corporation, Carlsbad, USA) was investigated using one-factor-at-a-time (OFAT) analysis.
The analysis was based on a comparison of the viable cell density and cell viability in a series of cell cultures, which were conducted at substantially identical culturing conditions, however, with increasing amounts of the Gln-Asn dipeptide in the medium. In order to keep the total amounts of Asn and Gln units (molar basis) in the various culture media constant, the molar concentration of free glutamine and free asparagine was reduced in accordance with the molar amount of the dipeptide added. A series of culture media having increasing amounts of the Gln-Asn dipeptide was prepared by mixing varying amounts of a Base Medium (comprising free Asn and Gln) and a Test Medium (comprising Asn-Gln dipeptide). A commercially available defined cell culture medium (TC-42, TeutoCell AG, Bielefeld, Germany) served as the Base Medium. (Any other suitable cell culture medium could be used.) A Test Medium (TC-42-EVO) was prepared so as to have identical nutrient concentrations compared to the Base Medium, however, instead of free Asn the Test Medium contained an equimolar amount (5.4 mM) of Gin-Asn dipeptide. Furthermore, the free Gln concentration in the Test Medium was set to a value such that the total concentration of Gln units in the Test Medium (i.e., free Gln and dipeptide-Gln) matched the concentration of free Gln in the Base Medium. All other nutrient concentrations in the Test Medium were the same as in the Base Medium. The Base Medium contained 1461.5 mg/l free Gln and 612 mg/l free Asn.
Six cell cultivations were then conducted with media containing varying amounts of the Test Medium and the Base Medium in the following proportions:
All media were set to pH 8.3. Salinity of the culture media was set to 285 mOsmol/kg with NaCl. All cultivations were conducted in on a rotary shaker under identical culture conditions (temperature, humidity, rpm, CO2, etc.), using standard cell culture methods. Three passages of a cell culture are conducted and viable cell density (VCD; 10^6 viable cells/ml) and cell viability (%) was followed in duplicate determinations, using […] determination.
Generally, an increased product titer is observed in all cultures including the Asn-containing dipeptide. In cultivations #2 and #3 (80% and 25% of the Asn present in form of the dipeptide, respectively) the product titer is more than 1.4-fold increased.

[2] = tested on: antibody-producing Chinese Hamster Ovary (CHO) cell (subclone DG44)
Method: The analysis was based on a comparison of the viable cell density and cell viability in a series of cell cultures, which were conducted at substantially identical culturing conditions, however, with increasing amounts of the Gln-Asn dipeptide in the medium. In order to keep the total amounts of Asn and Gln units (molar basis) in the various culture media constant, the molar concentration of free glutamine and free asparagine was reduced in accordance with the molar amount of the dipeptide added. A series of culture media having increasing amounts of the Gln-Asn dipeptide was prepared by mixing varying amounts of a Base Medium (comprising free Asn and Gln) and a Test Medium (comprising Asn-Gln dipeptide). A commercially available defined cell culture medium (TC-42, TeutoCell AG, Bielefeld, Germany) served as the Base Medium. […] Furthermore, the free Gln concentration in the Test Medium was set to a value such that the total concentration of Gln units in the Test Medium (i.e., free Gln and dipeptide-Gln) matched the concentration of free Gln in the Base Medium. All other nutrient concentrations in the Test Medium were the same as in the Base Medium. […]

NC(=O)CC[C@H](N)C(=O)N[C@@H](CC(N)=O)C(=O)O [Gln-Asn, L-glutaminyl-L-asparagine] (H-Gln-Asn-OH)
rel. product titer [-] ([1]; 0.3 mM dipeptide (#5)): 1.01 | rel. product titer [-] ([1]; 0.8 mM dipeptide (#4)): 1.11 | rel. product titer [-] ([1]; 1.4 mM dipeptide (#3)): 1.42 | rel. product titer [-] ([1]; 4.3 mM dipeptide (#2)): 1.41 | rel. product titer [-] ([1]; 5.4 mM dipeptide (#1)): 1.19 | product titer increase ([1]; cultivation #2, 80% of the Asn present in form of the dipeptide): more than 1.4 fold | product titer increase ([1]; cultivation #3, 25% of the Asn present in form of the dipeptide): more than 1.4 fold | product titer ([1]; cultivations #1-#4, dipeptide 0.8 mM to 5.4 mM): Significantly improved | cell viability at day 18 ([2]; high concentrations of the dipeptide (cultivations #1, #2, #3)): relatively high viability | cell viability at the end of experiment ([2]; lower concentration of the dipeptide (cultivations #4, #5)): significantly reduced cell viability
